Source: patent publication US20250034159A1, “INHIBITORS OF EPIDERMAL GROWTH FACTOR RECEPTOR” (ORIC Pharmaceuticals, Inc., priority 2021, published 2025)

Legend:
[1] = target: recombinant human EGFR exon 19 deletion/C797S double mutant protein (Homo sapiens (Human), UniProt P00533, C797S/DEL746-750); assay: Biological Activity Assay C: biochemical assay against EGFR exon 19 deletion/C797S protein (EGFR d19/CS)
Experimental: In Row A of a 384-well polypropylene plate, was added 48 μL of DMSO. In wells A1 and A24, were added 12 μL of DMSO. […] To a well in Row A were added 12 μL of each 10 mM test compound stock (100% DMSO). […] The final intermediate dilution plate contained 4×16-point compound serial dilutions in assay buffer. The DMSO concentration was 10%. The intermediate compound dilution plate was transferred to the Bravo and the “5 uL dispense into ARP.pro” protocol was run. To the black low volume assay ready plates, were added 5 μL of 40 uM Phosphosens peptide sensor/4 mM ATP working solution to each well. […] To column 24, was added 10 μL of assay buffer. The final DMSO concentration was 2.5%. […] The plates were sealed with the TopSeal-A Plus plate seals. […] Set for 90 cycles with 120 second interval. […] The slope of each curve was constructed using Dotmatics in each well, and each IC50s was calculated using a 4-parameter fit model.

Ba/F3_EGFR WT cells = assay: Biological Activity Assay D: BaF3 cell proliferation assay, EGFR wild-type (BaF3 WT); format: cell-based; details: Ba/F3 EGFR; Ba/F3_EGFR WT cells, ~72 hours, CellTiter-Glo; read-out: BaF3 WT IC50
Experimental: (§1) One frozen vial of cells should be thawed into one T25 flask in 10 mL media. Keep the flask upright in the incubator.
(§2) Method: One frozen vial of cells was thawed into one T25 flask in 10 mL media and the flask was kept upright in the incubator. Cells were split 1:10 every two to three days when cells reached confluency of around 1×10^6 cells/mL. Bravo protocol files were used with Greiner 384-well plates for all steps of compound preparation, cell plating and compound addition. […] 16 μL of DMSO were added (for compounds starting at 20 μM) or 28 μL DMSO (for compounds starting at 5 μM) to 96-well V-bottom polypropylene plate: wells 1A-1H (8 compounds/plate). […] 20 μL DMSO were added to the remainder of the wells (columns 2-12) in the 96-well V-bottom plate. A Bravo liquid handler was used to make 1:3 serial dilutions from columns 1 to 11 (12 remains as DMSO only) to prepare the DMSO dilution plate. 144 μL media were added to each well of a new 96-well V-bottom polypropylene plate to prepare the intermediate dilution plate. A Bravo or 96-head Integra liquid handler was used to add and mix 6 μL of test compound from the DMSO dilution plate to the intermediate dilution plate. (1:25 dilution). Cells were transferred from a flask into a 50 mL conical, vortex gently and the number of cells were counted, with a target cell number of about 1×10^6 cells per mL. The cells were diluted in culture medium in 50 mL conical or T25 flask, and the cell suspension was added to BRAVO reservoir and then use Bravo protocol to plate the appropriate number of cells shown below in 36 μl of medium per well as follows: Ba/F3-WT-EGFR 2000 cells per well of a 384 well plate; Ba/F3-LR/CS-EGFR 2000 cells per well of a 384 well plate; and Ba/F3-d19/CS-EGFR 1500 cells per well of a 384 well plate. An extra 10 mL of dead volume was utilized in each reservoir.
(§3) Using a Bravo liquid handler, 4 μl of test compound solution was added per well from the intermediate dilution plate to plated cells (1:10 dilution from the intermediate plate, final compound dilution 1:250 and final DMSO concentration per well is 0.4%). Using the 96 BRAVO Head, 25 μl were aspirated from the intermediate dilution plate and 4 μl each were dispensed into 4 wells (square pattern) in the 384-well plate. Any remaining test compound is dispensed into a secondary plate to prevent cross contamination of cells in the intermediate compound plate. After the compounds were added, the plate was shaken at 600 rpm gently for 60 see, and the plates were incubated in a tissue culture incubator, 37° C., 5% CO2, for ˜ 72 hours. After incubation, CTG 2.0 reagent was allowed to equilibrate to room temperature (˜3 hours) and cells to reach room temperature (˜10-15 minutes) and reagent was added to cells (40 μL/well) using a Bravo liquid handler. The plates were shaken to allow proper mixing (˜5 min) and let settle for 10 minutes and were read on Tecan plate reader using the appropriate luminescence method. Data from plate reader was transferred to an excel file and entered directly into Dotmatics using the protocols under EGFR Project/Cell Proliferation/named: “BaF3_EGFRwt_CP”, “BaF3_EGFR_d19/CS_CP”, “BaF3_EGFR_LR/CS_CP”. Curves were fit with a 4-parameter model and IC50s calculated by the Dotmatics software. DMSO wells were averaged to define the high control (100% growth). The average of the highest concentration of the positive control compound (afatinib) was used to define the 0% growth and used to lock the bottom of the curves. The tops of the curves were not fixed.

BaF3_EGFR LR/CS cells = assay: Biological Activity Assay D: BaF3 cell proliferation assay, EGFR L858R/C797S mutant (BaF3 LR/CS); format: cell-based; details: Ba/F3 EGFR; BaF3_EGFR LR/CS cells, ~72 hours, CellTiter-Glo; read-out: BaF3 LR/CS IC50
Experimental: as §1, §2, §3

BaF3_EGFR d19/CS cells = assay: Biological Activity Assay D: BaF3 cell proliferation assay, EGFR exon 19 deletion/C797S (BaF3 d19/CS); format: cell-based; details: Ba/F3 EGFR; BaF3_EGFR d19/CS cells, ~72 hours, CellTiter-Glo; read-out: BaF3 d19/CS IC50
Experimental: as §1, §2, §3

recombinant human EGFR exon 19 deletion/C797S double mutant protein, sequence (P00533 other isoform, or with tags, fused parts or gaps C797S/del 1-668/del 746-750 limits assumed): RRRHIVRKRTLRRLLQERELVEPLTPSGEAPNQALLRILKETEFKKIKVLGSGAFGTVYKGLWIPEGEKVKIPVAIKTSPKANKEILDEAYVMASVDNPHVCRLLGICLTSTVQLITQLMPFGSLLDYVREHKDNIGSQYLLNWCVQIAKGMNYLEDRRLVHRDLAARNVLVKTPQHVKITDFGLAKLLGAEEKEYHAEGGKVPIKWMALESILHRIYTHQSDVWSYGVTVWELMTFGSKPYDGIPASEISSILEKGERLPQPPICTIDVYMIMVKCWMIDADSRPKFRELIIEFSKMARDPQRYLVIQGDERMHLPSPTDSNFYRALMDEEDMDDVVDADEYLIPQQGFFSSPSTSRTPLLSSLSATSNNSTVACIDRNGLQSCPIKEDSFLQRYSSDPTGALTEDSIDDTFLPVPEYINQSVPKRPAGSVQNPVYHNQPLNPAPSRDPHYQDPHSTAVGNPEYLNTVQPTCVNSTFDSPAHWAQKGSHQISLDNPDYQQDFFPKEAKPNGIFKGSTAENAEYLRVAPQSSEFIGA

Row | Compound | IC50 [1] | IC50 (Ba/F3_EGFR WT cells) | IC50 (BaF3_EGFR LR/CS cells) | IC50 (BaF3_EGFR d19/CS cells)
1 | Fc1ccc(-c2nn([C@H]3CCCOC3)cc2-c2ncnc3oc(-c4ccccc4)cc23)cc1 (single isomer, unassigned) [Example 137] | 0.69 nM | 2500 nM | 40.5 nM | 71.3 nM
2 | Fc1ccc(-c2nn([C@H]3CCOC[C@@H]3F)cc2-c2ncnc3oc(-c4ccccc4)cc23)cc1 (single isomer, unassigned) [Example 152] | 1.33 nM | 2020 nM | 22.5 nM | 88.9 nM
3 | Fc1ccc(-c2nn([C@@H]3CCOC[C@H]3F)cc2-c2ncnc3oc(-c4ccccc4)cc23)cc1 (single isomer, unassigned) [Example 153] | 1.04 nM | 1800 nM | 22.3 nM | 60.4 nM
4 | CN1CC[C@@H](n2cc(-c3ncnc4oc(-c5ccccc5)cc34)c(-c3ccc(F)cc3)n2)C1=O (single isomer, unassigned) [Example 166] | 0.29 nM | 1350 nM | 19.6 nM | 53.8 nM
5 | CN1CC[C@H](n2cc(-c3ncnc4oc(-c5ccccc5)cc34)c(-c3ccc(F)cc3)n2)C1=O (single isomer, unassigned) [Example 167] | 0.83 nM | 1640 nM | 32.8 nM | 162 nM
6 | CS(=O)(=O)[C@@H]1CC[C@H](n2cc(-c3ncnc4oc(-c5ccccc5)cc34)c(-c3ccc(F)cc3)n2)C1 (single isomer, unassigned) [Example 192] | 0.97 nM | 3070 nM | 196 nM | 260 nM
7 | CS(=O)(=O)[C@H]1CC[C@@H](n2cc(-c3ncnc4oc(-c5ccccc5)cc34)c(-c3ccc(F)cc3)n2)C1 (single isomer, unassigned) [Example 193] | 1.64 nM | 3040 nM | 174 nM | 259 nM
8 | Fc1ccc(-c2nn([C@H]3CCOC[C@H]3F)cc2-c2ncnc3oc(-c4ccccc4)cc23)cc1 (single isomer, unassigned) [Example 210] | 0.5 nM | 1690 nM | 61.1 nM | 92.2 nM
9 | Fc1ccc(-c2nn([C@@H]3CCOC[C@@H]3F)cc2-c2ncnc3oc(-c4ccccc4)cc23)cc1 (single isomer, unassigned) [Example 211] | 0.35 nM | 886 nM | 18.3 nM | 20.1 nM
10 | C[C@@H]1OCC[C@H]1n1cc(-c2ncnc3oc(-c4ccccc4)cc23)c(-c2ccc(F)cc2)n1 (single isomer, unassigned) [Example 213] | 0.51 nM | 2610 nM | 80.9 nM | 168 nM
11 | C[C@H]1OCC[C@@H]1n1cc(-c2ncnc3oc(-c4ccccc4)cc23)c(-c2ccc(F)cc2)n1 (single isomer, unassigned) [Example 214] | 0.88 nM | 2510 nM | 136 nM | 303 nM
12 | CC1(C)C[C@H](Cn2cc(-c3ncnc4oc(-c5ccccc5)cc34)c(-c3ccc(F)cc3)n2)O1 (single isomer, unassigned) [Example 221] | 0.33 nM | 710 nM | 20.7 nM | 51.8 nM
13 | CC1(C)C[C@@H](Cn2cc(-c3ncnc4oc(-c5ccccc5)cc34)c(-c3ccc(F)cc3)n2)O1 (single isomer, unassigned) [Example 222] | 0.59 nM | 1250 nM | 76.8 nM | 182 nM
14 | CC1(C)C[C@H](n2cc(-c3ncnc4oc(-c5ccccc5)cc34)c(-c3ccc(F)cc3)n2)CCO1 (single isomer, unassigned) [Example 225] | 4.88 nM | 18900 nM | 502 nM | 886 nM
15 | CC1(C)C[C@@H](n2cc(-c3ncnc4oc(-c5ccccc5)cc34)c(-c3ccc(F)cc3)n2)CCO1 (single isomer, unassigned) [Example 226] | 1.86 nM | 10200 nM | 236 nM | 413 nM
16 | Fc1ccc(-c2nn([C@@H]3CCCCC3(F)F)cc2-c2ncnc3oc(-c4ccccc4)cc23)cc1 (single isomer, unassigned) [Example 230] | 5.1 nM | 2370 nM | 88.5 nM | 287 nM
17 | Fc1ccc(-c2nn([C@H]3CCCCC3(F)F)cc2-c2ncnc3oc(-c4ccccc4)cc23)cc1 (single isomer, unassigned) [Example 233] | 4.09 nM | 6040 nM | 228 nM | 414 nM
18 | CC1(C)C[C@@H](n2cc(-c3ncnc4oc(-c5ccccc5)cc34)c(-c3ccc(F)cc3)n2)CO1 (single isomer, unassigned) [Example 237] | 0.74 nM | 2500 nM | 35 nM | 73.9 nM
19 | CC1(C)C[C@H](n2cc(-c3ncnc4oc(-c5ccccc5)cc34)c(-c3ccc(F)cc3)n2)CO1 (single isomer, unassigned) [Example 238] | 0.62 nM | 2070 nM | 31 nM | 52.1 nM
20 | N=[S@]1(=O)CC[C@H](n2cc(-c3ncnc4oc(-c5ccccc5)cc34)c(-c3ccc(F)cc3)n2)C1 (single isomer, unassigned) [Example 246] | 0.06 nM | 876 nM | 10.6 nM | 26.9 nM
21 | N=[S@@]1(=O)CC[C@@H](n2cc(-c3ncnc4oc(-c5ccccc5)cc34)c(-c3ccc(F)cc3)n2)C1 (single isomer, unassigned) [Example 247] | 0.09 nM | 1360 nM | 8.8 nM | 26.9 nM
22 | Cn1cnc(-c2cc3c(-c4cn(C5CC5(F)F)nc4-c4ccc(F)cc4)ncnc3o2)c1 (single isomer, unassigned) [Example 273] | 0.291 nM | 834 nM | 22.9 nM | 24.8 nM
23 | Cn1cnc(-c2cc3c(-c4cn([C@H]5CC5(F)F)nc4-c4ccc(F)cc4)ncnc3o2)c1 (single isomer, unassigned) [Example 274] | 0.213 nM | 721 nM | 16.1 nM | 23.5 nM
24 | O[C@H]1C[C@@H](n2cc(-c3ncnc4oc(-c5ccccc5)cc34)c(-c3ccc(F)cc3)n2)C1 [Example 120, (1s,3s)-3-(3-(4-Fluorophenyl)-4-(6-phenylfuro[2,3-d]pyrimidin-4-yl)-1H-pyrazol-1-yl)cyclobutan-1-ol] | 0.12 nM | 633 nM | 8.82 nM | 17.1 nM
